This note sets out measurements from patent US20130053381A1, “2,4-DIOXO-1,4-DIHYDRO-2H-QUINAZOLIN-3-YL-SULFONAMIDE DERIVATIVES” (NOVARTIS AG, priority 2010, published 2013).

Like-named read-outs stand apart in the source and are kept apart here.

The test system of assay [1] is OF1 mice. Briefly: Maximal electroshock test (MES Test). To be noted: for responders at 50 mg/kg: p.o. The format is in vivo. An outline of the steps:
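Readout: fraction of five OF1 mice protected, meaning seizure duration 3 s or less, after a 50 Hz, 18 mA, 0.2 s temporal-electrode shock. Dosing was oral, usually 50 mg/kg, one hour beforehand; ED50 values were derived and post-shock blood taken for exposure.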
(In general: The maximal electroshock test induces tonic seizures with an electrical stimulus.)

The target of assay [2] is AMPA receptor. The assay can be described thus: [3H]CNQX binding test (AMPA-receptor binding). Also on record: species or system rat. Here is the method:
CNQX binding test (Honore et al. Biochem. Pharmacol. 1989, 38: 3207-3212). This test is performed as follows.
Brain membranes: The animals are sacrificed, the brain removed and homogenized in 10 volumes of ice-cold 10% sucrose with a glass/Teflon homogenizer at positions 5 for 30 sec. The membranes are centrifuged at 1000×g for 10 min, and the supernatant centrifuged at 20,000×g for 15 min. The resulting pellet is resuspended in 10 volumes of cold water with a tissue homogenizer (Brinkman Polytron) at position 5 for 15 sec and the suspension centrifuged at 8000×g for 10 min. The supernatant including the buffy layer is centrifuged at 40,000×g for 20 min, the pellet resuspended in 5 volumes of water and the suspension frozen (20-30 min in dry ice/MeOH) and thawed (water-bath at 37° C.) twice. The suspension is centrifuged at 40,000×g for 20 min, the pellet resuspended in 50 mM HEPES/KOH, pH 7.5, and centrifuged at 40,000×g for 10 min. The final pellet is resuspended with a glass/Teflon homogenizer in 5 volumes of HEPES/KOH buffer; 2 mL aliquots are frozen and stored in liquid nitrogen.
Pretreatment of membranes: Membranes are thawed at 35° C. and once washed with 50 mM HEPES/KOH by centrifugation at 39,000×g for 10 min. The final pellet is resuspended with a glass/Teflon homogenizer in the same buffer.
Radioligand binding assay: It is performed using 96-well microtiterplates in a volume of 0.3 mL of 50 mM HEPES/KOH, pH 7.2, 100 μg membrane protein, 5 nM [^3H]-CNQX (NEN) and the compound to be tested. Incubation is performed at 4° C. for 40 min and the reaction is terminated by centrifugation (Sigma 4K10) at 3700×g for 30 min. The pellet is washed once with cold buffer and then dissolved in 0.02 mL of the tissue solubilizer Soluene for 20 min. Two hundred μL of the scintillation fluid Microscint 20 (Packard) are added and the radioactivity is counted in a Packard Topcount scintillation counter at an efficiency of 40-45%. Nonspecific binding is defined by 10 μM CNQX. Assays are performed in triplicate.

Setting [3] is: Mus musculus, po, pre-treatment time −1 h, read-out: %-Protection.
Setting [4] is: Table 2 parent compounds, rat, read-out: [3H]CNQX IC50 AMPA receptor binding, rat.
Where [5] appears, read: Table 1A parent compounds, AMPA-receptor binding as described for Table 2, read-out: IC50.

As for `Cn1nccc1-c1cc2c(=O)n(NS(C)(=O)=O)c(=O)[nH]c2cc1C(F)(F)F` [Example 1.0, N-[6-(2-methyl-2H-pyrazol-3-yl)-2,4-dioxo-7-trifluoromethyl-1,4-dihydro-2H-quinazolin-3-yl]-methanesulfonamide], in assay [1] (setting [3]), the responders at 50 mg/kg amounted to 20%. Also, in assay [2] (setting [4]), the IC50 (in general, the concentration that gives 50% inhibition) amounted to 0.208 µM.

As for `CCc1cc2[nH]c(=O)n(NS(C)(=O)=O)c(=O)c2cc1-c1ccnn1C` [Example 2.0, N-[7-ethyl-6-(2-methyl-2H-pyrazol-3-yl)-2,4-dioxo-1,4-dihydro-2H-quinazolin-3-yl]-methanesulfonamide], in assay [1] (setting [3]), the responders at 50 mg/kg came to 80%. The IC50 in assay [2] (setting [4]) turned out to be 0.257 µM.

As for `CC(C)c1cc2[nH]c(=O)n(NS(C)(=O)=O)c(=O)c2cc1-c1ccnn1C` [Example 3.0, N-[7-isopropyl-6-(2-methyl-2H-pyrazol-3-yl)-2,4-dioxo-1,4-dihydro-2H-quinazolin-3-yl]-methanesulfonamide], the responders at 15 mg/kg in assay [1] (Mus musculus, po, Dose: 15 mg/kg, p.o. (footnote c), pre-treatment time −1 h, read-out: %-Protection) turned out to be 100%. Moreover, the responders at 50 mg/kg in assay [1] (Mus musculus, po, Table 5, pre-treatment time −0.25 h, read-out: %-Protection) was determined as 0%; in assay [1] (Mus musculus, po, Table 5, pre-treatment time −0.5 h, read-out: %-Protection), 100%; in assay [1] (Mus musculus, po, Table 5, pre-treatment time −1 h, read-out: %-Protection) it was 100%. Further, in assay [2] (setting [4]), the IC50 came out at 0.189 µM.

For `CS(=O)(=O)Nn1c(=O)[nH]c2cc(C(F)(F)F)c(-n3ccnc3)cc2c1=O` [Example 4.0, N-(6-imidazol-1-yl-2,4-dioxo-7-trifluoromethyl-1,4-dihydro-2H-quinazolin-3-yl)-methanesulfonamide], the ED50 (usually the dose at which the effect has come halfway, by size or by number of responders) in assay [1] (Mus musculus, ip, pre-treatment time −0.25 h (footnote g)) was determined as 10.7 mg/kg. The responders at 50 mg/kg in assay [1] (setting [3]) stood at 0%. The “%-seizure protection” value in assay [1] (single 50 mg/kg p.o. dose, 30 min after treatment, MES Test) is listed as 0%. Moreover, the IC50 in assay [2] (setting [4]) turned out to be 0.042 µM.

In the case of `CC(C)n1nccc1-c1cc2c(=O)n(NS(C)(=O)=O)c(=O)[nH]c2cc1C(F)(F)F` [Example 5.0, N-[6-(2-isopropyl-2H-pyrazol-3-yl)-2,4-dioxo-7-trifluoromethyl-1,4-dihydro-2H-quinazolin-3-yl]-methanesulfonamide], the responders at 50 mg/kg in assay [1] (setting [3]) is 80%. Also, the IC50 in assay [2] (setting [4]) was found to be 0.087 µM.

Take `CC(C)n1nccc1-c1cc2c(=O)n(NS(C)(=O)=O)c(=O)[nH]c2cc1C(F)F` [Example 6.0, N-[7-difluoromethyl-6-(2-isopropyl-2H-pyrazol-3-yl)-2,4-dioxo-1,4-dihydro-2H-quinazolin-3-yl]-methanesulfonamide]: the responders at 50 mg/kg in assay [1] (setting [3]) was 80%. Moreover, the responders at 25 mg/kg in assay [1] (Mus musculus, po, Dose: 25 mg/kg, p.o. (footnote b), pre-treatment time −1 h, read-out: %-Protection) was determined as 20%. Further, the IC50 in assay [2] (setting [4]) came to 0.11 µM.

For the compound `CS(=O)(=O)Nn1c(=O)[nH]c2cc(C(F)(F)F)c(-n3cccc3)cc2c1=O` [Example 8.0, N-(2,4-dioxo-6-pyrrol-1-yl-7-trifluoromethyl-1,4-dihydro-2H-quinazolin-3-yl)-methanesulfonamide], the responders at 50 mg/kg in assay [1] (setting [3]) turned out to be 40%. Besides, the IC50 in assay [2] (setting [4]) is 0.162 µM.

`CS(=O)(=O)Nn1c(=O)[nH]c2cc(C(F)(F)F)c(-n3cnnc3)cc2c1=O` [Example 9.0, N-(2,4-dioxo-6-[1,2,4]triazol-4-yl-7-trifluoromethyl-1,4-dihydro-2H-quinazolin-3-yl)-methanesulfonamide]: in assay [1] (Mus musculus, po, pre-treatment time −2 h (footnote a), read-out: %-Protection), the responders at 50 mg/kg turned out to be 20%. Also, the IC50 in assay [2] (setting [4]) is 0.046 µM.

As for `CS(=O)(=O)Nn1c(=O)[nH]c2cc(C(F)(F)F)c([C@H]3CCCO3)cc2c1=O` [Example 10.0, N—((R)-2,4-dioxo-6-tetrahydro-furan-2-yl-7-trifluoromethyl-1,4-dihydro-2H-quinazolin-3-yl)-methanesulfonamide], the responders at 50 mg/kg in assay [1] (Mus musculus, po, pre-treatment time −0.5 h (footnote d), read-out: %-Protection) amounted to 0%; in assay [1] (setting [3]), 100%. In addition, the IC50 in assay [2] (setting [4]) amounted to 0.159 µM.

For the compound `CCC(OC)c1cc2c(=O)n(NS(C)(=O)=O)c(=O)[nH]c2cc1C(F)(F)F` (centres unmarked) [Example 11.0, N-[2,4-Dioxo-6-(1-methoxy-propyl)-7-trifluoromethyl-1,4-dihydro-2H-quinazolin-3-yl]-methanesulfonamide], in assay [1] (setting [3]), the responders at 50 mg/kg was 100%. Besides, the concentration for half-maximal inhibition (IC50) in assay [2] (setting [4]) is 0.317 µM.

Take `CCCC(OC)c1cc2c(=O)n(NS(C)(=O)=O)c(=O)[nH]c2cc1C(F)(F)F` (centres unmarked) [Example 27.0]: in assay [2] (setting [5]), the IC50 was found to be 0.72 µM.

Regarding `COC(c1cc2c(=O)n(NS(C)(=O)=O)c(=O)[nH]c2cc1C(F)(F)F)C(C)C` (centres unmarked) [Example 28.0], in assay [2] (setting [5]), the concentration for half-maximal inhibition (IC50) is 1.04 µM.

For `CS(=O)(=O)Nn1c(=O)[nH]c2cc(C(F)(F)F)c(C3CCCCO3)cc2c1=O` (centres unmarked) [Example 29.0], the half-maximal inhibitory concentration (IC50) in assay [2] (setting [5]) was found to be 1.08 µM.

Regarding `CS(=O)(=O)Nn1c(=O)[nH]c2cc(C(F)(F)F)c(C3CCOC3)cc2c1=O` (centres unmarked) [Example 30.0], the IC50 in assay [2] (setting [5]) came out at 0.22 µM.

`CS(=O)(=O)Nn1c(=O)[nH]c2cc(C(F)(F)F)c(-c3ccnn3O)cc2c1=O` [Example 31.0]: the IC50 in assay [2] (setting [5]) was determined as 0.14 µM.

As to `COCCn1nccc1-c1cc2c(=O)n(NS(C)(=O)=O)c(=O)[nH]c2cc1C(F)(F)F` [Example 32.0], the IC50 in assay [2] (setting [5]) turned out to be 0.31 µM.

As to `CC(C)n1nccc1-c1cc2c(=O)n(NS(C)(=O)=O)c(=O)[nH]c2cc1CF` [Example 33.0], the IC50 in assay [2] (setting [5]) is 0.44 µM.

As to `Cn1nccc1-c1cc2c(=O)n(NS(C)(=O)=O)c(=O)[nH]c2cc1C(F)F` [Example 34.0], in assay [2] (setting [5]), the IC50 is 0.26 µM.

Turning to `CC(C)n1nccc1-c1cc2c(=O)n(NS(C)(=O)=O)c(=O)[nH]c2cc1C(F)F` [Example 35.0], the IC50 in assay [2] (setting [5]) stood at 0.11 µM.

Consider `COCCn1nccc1-c1cc2c(=O)n(NS(C)(=O)=O)c(=O)[nH]c2cc1C(C)C` [Example 36.0], for which the IC50 in assay [2] (setting [5]) was 0.32 µM.

In the case of `CC(C)c1cc2[nH]c(=O)n(NS(C)(=O)=O)c(=O)c2cc1-c1ccnn1C(C)C` [Example 37.0], in assay [2] (setting [5]), the IC50 amounted to 0.43 µM.

Take `CS(=O)(=O)Nn1c(=O)[nH]c2cc(C(F)(F)F)c(-c3ccn[nH]3)cc2c1=O` [Example 38.0]: in assay [2] (setting [5]), the IC50 was 0.47 µM.

For the compound `Cn1nccc1-c1cc2c(=O)n(NS(C)(=O)=O)c(=O)[nH]c2cc1CF` [Example 39.0], in assay [2] (setting [5]), the IC50 is 0.77 µM.

For the compound `CC(C)n1nccc1-c1cc2c(=O)n(NS(C)(=O)=O)c(=O)[nH]c2cc1C(C)(F)F` [Example 40.0], in assay [2] (setting [5]), the IC50 was 0.21 µM.

In the case of `Cn1nccc1-c1cc2c(=O)n(NS(C)(=O)=O)c(=O)[nH]c2cc1C(C)(F)F` [Example 41.0], the IC50 in assay [2] (setting [5]) worked out at 0.58 µM.

`CC(F)c1cc2[nH]c(=O)n(NS(C)(=O)=O)c(=O)c2cc1-c1ccnn1C(C)C` (centres unmarked) [Example 42.0]: the IC50 in assay [2] (setting [5]) turned out to be 0.22 µM.

With `CC(F)c1cc2[nH]c(=O)n(NS(C)(=O)=O)c(=O)c2cc1-c1ccnn1C` (centres unmarked) [Example 43.0], the IC50 in assay [2] (setting [5]) was determined as 0.7 µM.

Turning to `CC(C)c1cc2[nH]c(=O)n(NS(C)(=O)=O)c(=O)c2cc1C1CCOC1` (centres unmarked) [Example 44.0], in assay [2] (setting [5]), the IC50 amounted to 2.2 µM.

`CC(C)c1cc2[nH]c(=O)n(NS(C)(=O)=O)c(=O)c2cc1-c1ccnn1[C@@H]1CCOC1` [Example 45.0]: in assay [2] (setting [5]), the 50% inhibitory concentration (IC50) came out at 0.56 µM.

`CS(=O)(=O)Nn1c(=O)[nH]c2cc(C(F)(F)F)c(-c3ccnn3C3CCCC3)cc2c1=O` [Example 46.0]: the IC50 in assay [2] (setting [5]) stood at 1.2 µM.

For `CS(=O)(=O)Nn1c(=O)[nH]c2cc(C(F)(F)F)c([C@H]3CO[C@@H](CO)C3)cc2c1=O` [Example 47.0], the IC50 in assay [2] (setting [5]) was 0.37 µM.

Regarding `C[C@@H]1COC[C@@H]1c1cc2c(=O)n(NS(C)(=O)=O)c(=O)[nH]c2cc1C(F)(F)F` [Example 48.0], the IC50 in assay [2] (setting [5]) came out at 0.52 µM.

Consider `CC(C)c1cc2[nH]c(=O)n(NS(C)(=O)=O)c(=O)c2cc1-c1ccnn1-c1ccccc1` [Example 49.0], for which the IC50 in assay [2] (setting [5]) was determined as 3.5 µM.

For the compound `CCOC(C)c1cc2c(=O)n(NS(C)(=O)=O)c(=O)[nH]c2cc1CC` (centres unmarked) [Example 50.0], the IC50 in assay [2] (setting [5]) came out at 1.85 µM.

`CC(OCc1ccccc1)c1cc2c(=O)n(NS(C)(=O)=O)c(=O)[nH]c2cc1C(F)(F)F` (centres unmarked) [Example 51.0]: the IC50 in assay [2] (setting [5]) was found to be 0.78 µM.

For the compound `CC(OCC(F)(F)F)c1cc2c(=O)n(NS(C)(=O)=O)c(=O)[nH]c2cc1C(F)(F)F` (centres unmarked) [Example 52.0], the IC50 in assay [2] (setting [5]) turned out to be 1.12 µM.
